This passage reports EC50 results from patent US12583858B2 (Genentech, Inc., priority 2015, dated 2026).

The target in this test is T1, TDO2 (Homo sapiens, UniProt P48775).
T1 construct: decreased levels of NFK in SW48 cells (high TDO expressing cells)
T1 sequence (P48775 whole entry): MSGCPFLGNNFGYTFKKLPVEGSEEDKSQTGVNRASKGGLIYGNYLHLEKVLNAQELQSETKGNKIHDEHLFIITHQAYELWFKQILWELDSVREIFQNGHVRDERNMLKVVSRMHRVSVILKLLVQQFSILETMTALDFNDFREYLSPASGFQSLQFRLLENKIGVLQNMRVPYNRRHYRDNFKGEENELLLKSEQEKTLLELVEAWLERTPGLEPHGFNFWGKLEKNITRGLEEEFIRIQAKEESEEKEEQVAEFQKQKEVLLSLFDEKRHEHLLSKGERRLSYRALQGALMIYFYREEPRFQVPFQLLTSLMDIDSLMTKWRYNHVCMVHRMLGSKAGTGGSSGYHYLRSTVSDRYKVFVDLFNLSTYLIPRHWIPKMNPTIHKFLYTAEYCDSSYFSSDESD
As to the kind of experiment: TDO2 cell assay (NFK GreenScreen, SW48 cells). In kind it is cell-based. Conditions: SW48 cells (high TDO expressing), 200 uM tryptophan, 24 hours; Table 3; read-out: TDO2 Cell Fluor EC50.
Turning to `CC(C)(C)OC(=O)N1CC2(CC(C3c4ccccc4-c4cncn43)C2O)C1` (single isomer, unassigned) [Example 41c, tert-butyl 7-hydroxy-6-(5H-imidazo[1,5-b]isoindol-5-yl)-2-azaspiro[3.3]heptane-2-carboxylate], the EC50 was found to be 23 µM.

In the case of `OC1(C2c3ccccc3-c3cncn32)CCCOC1` (single isomer, unassigned) [Example 144b], the EC50 is greater than 25 µM. For `O[C@@H](C1CCCCC1)[C@@H]1c2ccccc2-c2cncn21` (single isomer, unassigned) [Example 148d] the value was greater than 25 µM; for `NS(=O)(=O)N1CCC2(CCC(C3c4ccccc4-c4cncn43)C2O)CC1` (single isomer, unassigned) [Example 182d], 0.092 µM. For the compound `OC(c1ccncc1)C1c2ccccc2-c2cncn21` (single isomer, unassigned) [Example 152c], the EC50 was greater than 25 µM. On to `Nc1ccc2c(n1)CCC(C1c3ccccc3-c3cncn31)C2O` (single isomer, unassigned) [Example 121e], for which the EC50 came out at 16 µM. On to `OC1COCCC1C1c2cc(F)ccc2-c2cncn21` (single isomer, unassigned) [Example 75-1d], for which the EC50 is greater than 25 µM. The result for `NS(=O)(=O)N1CCC(O)C(C2c3ccccc3-c3cncn32)CC1` (single isomer, unassigned) [Example 101c, 4-hydroxy-5-(5H-imidazo[5,1-a]isoindol-5-yl)azepane-1-sulfonamide] reads greater than 25 µM; that for `C[C@@](O)(C1CCOCC1)[C@@H]1c2ccccc2-c2cncn21` (racemic) [Example 131a, Mixture of(S)-1-((R)-5H-imidazo[5,1-a]isoindol-5-yl)-1-(tetrahydro-2H-pyran-4-yl)ethan-1-ol and (R)-1-((S)-5H-imidazo[5,1-a]isoindol-5-yl)-1-(tetrahydro-2H-pyran-4-yl)ethan-1-ol], 19 µM; that for `CC1(C)CCCC(C)(C2c3ccccc3-c3cncn32)C1O` (single isomer, unassigned) [Example 90f], 0.41 µM. Regarding `Cc1ncc2c(n1)CCC(C1c3ccccc3-c3cncn31)C2O` (single isomer, unassigned) [Example 124a], the 50% effective concentration (EC50) worked out at 16 µM. The result for `OC1CCOCC1C1c2c(Cl)cccc2-c2cncn21` (single isomer, unassigned) [Example 69b] reads greater than 25 µM.

With `N#Cc1cnc2c(c1)CCC(C1c3ccccc3-c3cncn31)C2O` (single isomer, unassigned) [Example 107e], the EC50 is 23 µM. As to `OC1c2ccccc2CCC1C1c2ccccc2-c2cncn21` (single isomer, unassigned) [Example 102d], the EC50 stood at 11 µM. The result for `Nc1ccc2c(n1)CCC(C1c3ccccc3-c3cncn31)C2O` (single isomer, unassigned) [Example 121a] reads 0.84 µM; that for `CN(C)S(=O)(=O)N1CC[C@@H]([C@H]2c3ccccc3-c3cncn32)[C@H](O)C1` [Example 78b], 0.16 µM; that for `OC1c2ccnn2CCCC1C1c2ccccc2-c2cncn21` (single isomer, unassigned) [Example 133g], 3 µM. Turning to `OC1c2nccn2CCC1C1c2ccccc2-c2cncn21` (single isomer, unassigned) [Example 88g], the EC50 was found to be 0.73 µM. For `O[C@H](C1CCCCC1)[C@@H]1c2ccccc2-c2cncn21` [Example 148a, (R)-cyclohexyl((S)-5H-imidazo[5,1-a]isoindol-5-yl)methanol] the value was 14 µM; for `NC(=O)C1(C(O)C2c3ccccc3-c3cncn32)CC1` (single isomer, unassigned) [Example 165c], 11 µM.

As for `OC1c2ccccc2CCC1C1c2ccccc2-c2cncn21` (single isomer, unassigned) [Example 102c], the EC50 was determined as 0.32 µM.

As to `OC1c2ccnn2CCCC1C1c2ccccc2-c2cncn21` (single isomer, unassigned) [Example 133b], the EC50 came out at 0.94 µM.

Broadly, the EC50 is the concentration needed to bring the measured effect to its halfway point.
